Tests used:
[1] = target: T1, Polyunsaturated fatty acid 5-lipoxygenase (Rattus norvegicus, UniProt P12527); assay: Tested for its inhibitory activity against 5-lipoxygenase
T1 sequence (P12527 whole entry): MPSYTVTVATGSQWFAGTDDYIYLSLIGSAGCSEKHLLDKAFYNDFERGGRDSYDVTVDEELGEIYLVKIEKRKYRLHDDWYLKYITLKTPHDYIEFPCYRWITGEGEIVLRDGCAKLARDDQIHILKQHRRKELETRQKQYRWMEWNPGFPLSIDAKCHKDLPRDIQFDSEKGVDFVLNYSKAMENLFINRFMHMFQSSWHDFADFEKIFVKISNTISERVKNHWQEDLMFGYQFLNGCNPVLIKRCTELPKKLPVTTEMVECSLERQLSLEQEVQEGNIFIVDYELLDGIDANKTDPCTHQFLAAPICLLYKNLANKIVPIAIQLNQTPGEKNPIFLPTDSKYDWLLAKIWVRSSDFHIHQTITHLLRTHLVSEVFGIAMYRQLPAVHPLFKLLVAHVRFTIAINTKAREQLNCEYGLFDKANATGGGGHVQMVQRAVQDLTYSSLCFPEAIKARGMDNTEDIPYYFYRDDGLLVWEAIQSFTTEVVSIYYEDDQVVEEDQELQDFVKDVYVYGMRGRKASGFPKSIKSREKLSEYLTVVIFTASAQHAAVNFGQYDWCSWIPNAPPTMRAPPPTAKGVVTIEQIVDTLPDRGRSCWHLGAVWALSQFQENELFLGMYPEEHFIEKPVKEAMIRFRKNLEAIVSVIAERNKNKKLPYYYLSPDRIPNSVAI

Mus musculus [2] = assay: Tested for its antiinflammatory activity in the A-23187 (calcium ionophore) ear edema model.; format: functional
Mus musculus [3] = assay: Tested for its antiinflammatory activity in the arachidonic acid(AA) induced ear edema model; format: functional
Mus musculus [4] = assay: Tested for its antiinflammatory activity in the contact sensitive (CS) ear edema model; format: functional
Mus musculus [5] = assay: Tested for its antiinflammatory activity in the tetradecanoyl phorbol acetate induced ear edema model (TPA Ear); format: functional
[6] = target: Phospholipase A2, major isoenzyme (Sus scrofa, UniProt P00592); assay: Tested for its inhibitory activity against Phospholipase A2 (PLA2); set-up: species or system Mus musculus
Sequence of Phospholipase A2, major isoenzyme (P00592 whole entry): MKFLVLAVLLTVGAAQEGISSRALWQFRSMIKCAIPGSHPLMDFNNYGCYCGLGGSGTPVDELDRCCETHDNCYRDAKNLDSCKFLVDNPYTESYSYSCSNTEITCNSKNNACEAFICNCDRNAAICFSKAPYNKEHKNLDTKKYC

Cyclooxygenase = target: T2, Cyclooxygenase (Bos taurus, UniProt O62664+O62698); assay: Tested for its inhibitory activity against PGS (prostaglandin synthetase).; format: protein assay
T2 sequence (O62664 whole entry): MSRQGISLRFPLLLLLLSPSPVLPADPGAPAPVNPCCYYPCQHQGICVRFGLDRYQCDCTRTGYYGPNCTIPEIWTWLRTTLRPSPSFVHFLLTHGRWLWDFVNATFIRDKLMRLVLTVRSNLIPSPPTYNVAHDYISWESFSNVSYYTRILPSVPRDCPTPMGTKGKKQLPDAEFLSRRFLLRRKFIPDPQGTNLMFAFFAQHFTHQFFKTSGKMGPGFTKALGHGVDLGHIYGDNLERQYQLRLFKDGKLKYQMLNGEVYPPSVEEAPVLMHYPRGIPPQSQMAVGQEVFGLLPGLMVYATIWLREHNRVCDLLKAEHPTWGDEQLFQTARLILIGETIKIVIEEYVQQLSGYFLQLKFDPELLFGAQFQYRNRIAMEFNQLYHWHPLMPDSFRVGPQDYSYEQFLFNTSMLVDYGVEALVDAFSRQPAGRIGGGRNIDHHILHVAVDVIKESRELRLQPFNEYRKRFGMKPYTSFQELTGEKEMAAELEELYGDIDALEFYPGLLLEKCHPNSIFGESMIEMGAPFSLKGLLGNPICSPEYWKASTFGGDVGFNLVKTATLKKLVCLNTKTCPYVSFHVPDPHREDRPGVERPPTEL
T2 sequence (O62698 whole entry): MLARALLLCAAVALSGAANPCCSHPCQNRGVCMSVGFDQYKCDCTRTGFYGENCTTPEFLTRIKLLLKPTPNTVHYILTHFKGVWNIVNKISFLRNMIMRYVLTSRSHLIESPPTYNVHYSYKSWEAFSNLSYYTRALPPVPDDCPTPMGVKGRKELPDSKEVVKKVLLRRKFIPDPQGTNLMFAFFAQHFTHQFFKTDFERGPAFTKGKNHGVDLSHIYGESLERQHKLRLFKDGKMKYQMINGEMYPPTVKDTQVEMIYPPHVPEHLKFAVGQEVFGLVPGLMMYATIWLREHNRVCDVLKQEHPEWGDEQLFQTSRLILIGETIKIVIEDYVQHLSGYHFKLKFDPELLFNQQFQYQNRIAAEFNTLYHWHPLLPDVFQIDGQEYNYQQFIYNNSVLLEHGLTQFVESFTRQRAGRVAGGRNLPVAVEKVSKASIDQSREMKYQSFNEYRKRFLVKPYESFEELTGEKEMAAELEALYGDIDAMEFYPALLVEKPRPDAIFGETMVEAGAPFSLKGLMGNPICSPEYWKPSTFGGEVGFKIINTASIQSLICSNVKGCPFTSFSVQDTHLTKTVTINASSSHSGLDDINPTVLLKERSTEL

Compound	IC50 [1] [µM]	ED50 (Mus musculus [2]) [ug ear-1]	ED50 (Mus musculus [3]) [ug ear-1]	ED50 (Mus musculus [4]) [ug ear-1]	ED50 (Mus musculus [5]) [ug ear-1]	IC50 [6] [µM]	IC50 (Cyclooxygenase) [µM]
CC(N)CCCNC[C@]1(C)CCC[C@]2(C)c3ccc(C(C)C)cc3CCC12.Cl.Cl (stereo partly specified)	1.2	>200	100	>100	18.8	5.4	390
CC(C)c1ccc2c(c1)CCC1[C@](C)(CNCc3ccccc3C(=O)O)CCC[C@]21C.Cl (stereo partly specified)	> 25	64.1	>100	>100	16	34.5	220
CC(C)c1ccc2c(c1)CCC1[C@](C)(CNCC3CCCN3)CCC[C@]21C.Cl.Cl (stereo partly specified)	–	200	>100	90	18	28	62
C[C@@H]1C[C@H]2[C@@H]3CCC4=CC(=O)C=C[C@]4(C)[C@@]3(F)[C@@H](O)C[C@]2(C)[C@@]1(O)C(=O)CO [DEXAMETHASONE]	120	0.5	>100	0.7	–	> 750	–
CCN(CC)CCCC(C)Nc1c2ccc(Cl)cc2nc2ccc(OC)cc12 (stereo unspecified) [QUINACRINE]	–	>100	>100	–	>100	100	32.6
CC(=O)NC(CCN(C[C@]1(C)CCC[C@]2(C)c3ccc(C(C)C)cc3CCC12)C(C)=O)c1ccc(F)cc1 (stereo partly specified)	> 25	84.7	>100	>100	10	90.5	124
CC(C)c1ccc2c(c1)CC[C@H]1C(C)(CN)CCC[C@]21C.Cl (stereo partly specified)	8	–	>100	19.8	130.7	21	71
COc1ccc2c(c1)c(CC(=O)O)c(C)n2C(=O)c1ccc(Cl)cc1 [INDOMETHACIN]	> 250	254	1000	–	–	–	–

Reference: ChEMBL document CHEMBL1149986, “Topical antiinflammatory dehydroabietylamine derivatives. IV” (Bioorg Med Chem Lett, 1993)
